The results in this text go back to patent publication US20100280035A1, “SOLID PHARMACEUTICAL COMPOSITION COMPRISING 1-(4-CHLOROANILINO)-4-(4-PYRIDYLMETHYL)PHTHALAZINE AND A PH MODIFIER” (priority 2005, published 2010).

This series is described as follows: Permeability of the Agent in the small intestine.

`Clc1ccc(Nc2nnc(Cc3ccncc3)c3ccccc23)cc1.O=C(O)CCC(=O)O` [Agent, 1-(4-chloroanilino)-4-(4-pyridylmethyl)phthalazine succinate]: the permeability entry is “good”.
